According to US7049321B2, “Methods and pharmaceutical compositions for treatment of central and peripheral nervous system disorders and compounds useful therefor” (Israel Institute for Biological Research, priority 2002, dated 2006):

Experiments:
M1 receptors = target: T1, M1 receptors (Rattus norvegicus, UniProt P08482); experiment: [3H]PZ competition binding to rat cortical membranes; conditions: rat cortex
T1 construct: from tissue; host or cells: rat cortical membranes
T1 sequence (P08482 1-460): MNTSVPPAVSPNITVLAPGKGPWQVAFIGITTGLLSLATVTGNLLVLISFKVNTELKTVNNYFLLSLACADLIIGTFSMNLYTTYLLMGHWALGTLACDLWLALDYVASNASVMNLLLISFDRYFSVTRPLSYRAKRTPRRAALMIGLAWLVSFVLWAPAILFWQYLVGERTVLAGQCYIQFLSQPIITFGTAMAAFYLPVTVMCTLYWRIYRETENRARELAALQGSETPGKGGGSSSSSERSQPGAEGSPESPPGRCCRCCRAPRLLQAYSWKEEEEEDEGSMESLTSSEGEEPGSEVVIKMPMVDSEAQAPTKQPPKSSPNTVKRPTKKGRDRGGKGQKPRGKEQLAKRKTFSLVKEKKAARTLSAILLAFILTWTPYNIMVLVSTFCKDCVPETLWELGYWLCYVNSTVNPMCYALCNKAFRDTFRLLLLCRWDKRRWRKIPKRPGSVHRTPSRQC
Excerpt: Pirenzepine (PZ), a muscarinic antagonist, binds preferentially to M1 receptors while OXO-M binds to all mAChR subtypes non-selectively; the ratio between the Ki values for PZ versus that of OXO-M may be indicative of the selectivity of the tested compound. The smaller the ratio, the more M1 selective is the tested compound. […] The OXO-M/PZ ratio is ˜0.36 showing a moderately high selectivity for the M1 receptor.

muscarinic receptor = experiment: [3H]OXO-M competition binding; conditions: rat cortex
M2 mAChR = target: T2, M2 mAChR (Homo sapiens, UniProt P08172); experiment: Intracellular Ca increase in modified cell cultures, M2; format: cell-based
T2 construct: expressed in transfected cells; host or cells: 'modified cell cultures' giving a Ca increase; modification not described
T2 sequence (P08172 whole entry): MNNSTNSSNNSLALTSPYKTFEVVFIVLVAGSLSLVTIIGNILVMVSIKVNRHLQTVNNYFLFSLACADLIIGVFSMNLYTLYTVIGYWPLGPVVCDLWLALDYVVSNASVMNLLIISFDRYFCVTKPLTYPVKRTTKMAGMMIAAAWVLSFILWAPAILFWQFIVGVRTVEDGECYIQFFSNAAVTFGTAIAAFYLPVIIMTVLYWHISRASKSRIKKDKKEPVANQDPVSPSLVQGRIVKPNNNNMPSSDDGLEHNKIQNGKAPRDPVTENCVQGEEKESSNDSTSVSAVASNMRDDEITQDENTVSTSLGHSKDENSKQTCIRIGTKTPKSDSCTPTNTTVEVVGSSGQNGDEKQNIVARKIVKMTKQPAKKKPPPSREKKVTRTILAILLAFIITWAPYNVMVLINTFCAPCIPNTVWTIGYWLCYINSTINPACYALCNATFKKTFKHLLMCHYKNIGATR

[1] = system: rat primary cerebral cortex cell cultures; experiment: APPs secretion in rat primary cortical cell cultures; format: cell-based; conditions: 100 μm
rabbits with nbm lesions = experiment: CSF and cortical Aβ in hypocholinergic (nbm-lesioned) rabbits; format: in vivo, New Zealand White rabbits; conditions: 4 weeks
Excerpt: It is known that experimentally-induced cortical cholinergic denervation results in biochemical elevations of cortical Aβ concentrations and in histologic Aβ deposition (Beach et al, Neurosci Lett 283: 9–12, 2000), and that administration of muscarinic Ml-selective agents to normal animals decreases CSF AP concentrations {Beach et al Brain Res. 905: 220–223, 2001}.
Twenty-eight female New Zealand White rabbits, about 2.5 kg each (young adults) were used. Twenty-one received lesions of the cholinergic nucleus basalis magnocellularis (nbm). The lesion was accomplished with unilateral i.c.v. injections of an immunotoxin consisting of the ribosomal toxin saporin conjugated to the monoclonal antibody ME20.4, which is directed against the low-affinity neurotrophin receptor, p75. The ME20.4 antibody is made against monkey p75 and also recognizes rabbit p75. The dose of immunotoxin was 32.4 μg in 12 μl; this was delivered to the right lateral ventricle 2 mm lateral to the bregma. Seven animals received i.c.v. injections of sterile normal saline (sham lesion). Animals which received the immunotoxin were divided into 3 groups of 7. […] Another group received physostigmine hemisalicylate in normal saline by s.c. osmotic pump at a daily dose of 3 mg/kg. The third group received twice-daily sterile saline s.c. injections. The animals which received a sham lesion were implanted with s.c. osmotic pumps filled with sterile normal saline. Animals were euthanized 4 weeks after surgery. […] Cerebrospinal fluid was taken from the cisterna magna of all animals at the time of sacrifice; the brain was removed and sliced coronally into 0.5 cm slices. […] The other slices were frozen on sheets of dry ice (the other slices are the non-fixed 0.5 cm coronal slices of cerebrum, brainstem and cerebellum).

[2] = system: rat primary hippocampal cell cultures; experiment: APPs secretion in rat primary hippocampal cell cultures; format: cell-based; conditions: 100 μm

SMILES: CC[C@H]1SC2(CCNCC2)NC1=O [AF291, (R)-2-Ethyl-1-thia-4,8-diaza-spiro[4.5]decan-3-one]
- Ki (M1 receptors): 10.7 µM
- Ki (muscarinic receptor): 6.56 µM

SMILES: C[N+](C)(C)CCOC(N)=O [carbachol, reference compound]
- Increase in activity on the M2 mAChR (M2 mAChR): 8 fold

SMILES: CNC(=O)Oc1ccc2c(c1)[C@]1(C)CCN(C)[C@@H]1N2C [physostigmine, reference compound]
- APPs secretion, activity in words [1]: inactive
- Histologic Aβ deposition, % of the lesioned, untreated group (rabbits with nbm lesions): 6.4%
- APPs secretion, activity in words [2]: inactive
